One block for each substance: values may come before it.
What was measured:
[1] = test system: leech hyaluronidase; test: Reducing sugar assay of leech hyaluronidase preincubated with heparin; assay type: biochemical; conditions: heparin up to 2500 USP/ml; preincubated one hour at 25° C.; enzyme 68 IU/ml; FIG. 1
Description: (§1) Leech hyaluronidase (68 IU/ml was preincubated for one hour at 25° C. in the presence of concentrations of heparin (0-2500 USP/1 ml) in 20 mM methanesulphonic acid (MES), 0.1M NaCl, pH 5.0 buffer and then added to hyaluronic acid (5 mg/ml) and the incubation continued for one hour at 37° C. The generation of reducing sugars was determined by terminating the reactions by the addition of 1:1 3,5-dinitrosalicylic acid reagent (100 ml: 5% w/v dinitrosalicylic acid in 2M NaOH plus 250 ml: 60% w/v sodium potassium tartrate in water, made up to 500 ml with water) and heating for 5 min in vigorously boiling water. After heating, assay tubes were rapidly cooled to ambient temperature and absorbances at 540 nm measured spectrophotometrically. Suitable blanks and no-enzyme controls were included in the assay. The results are expressed as a percentage of the absorbances obtained in control incubations containing no heparin.

[2] = test system: mammalian testicular hyaluronidase; test: Reducing sugar assay of mammalian testicular hyaluronidase preincubated with heparin; assay type: biochemical; conditions: heparin above 3 USP/ml; MTH 75 IU/ml; preincubated one hour at 25° C.
Description: as §1, with “heparin. […] MTH (75 IU/ml) was preincubated for one hour at 25° C. with heparin (0 to 250 USP/ml) in 20 mM MES, 0.1M NaCl pH 5.0, buffer and then added (1:10 final dilution) to hyaluronate and incubated for a further one hour at 37° C. Activity was determined using the reducing sugar assay (described above) and is expressed as a percentage of controls without heparin. […]” for “heparin.”

[3] = test system: whole blood; test: Whole blood clotting time after incubation of heparin with or without leech hyaluronidase
Description: Heparin (0-150 USP/ml) was incubated for one hour at […] either with or without leech hyaluronidase (50 IU/ml) and in 20 mM MES, 0.1M NaCl, pH 5.0 buffer; then whole blood was added to determine the effect on clottability.

[4] = test system: Rats; test: Indian ink spreading after subcutaneous injection in rats; assay type: in vivo, rat; conditions: heparin 250 to 2500 USP/ml with leech hyaluronidase
Description: Leech hyaluronidase (100 IU/ml) was mixed 1:1 with Indian ink in 20 mM MES, 0.1M NaCl pH 5.0, buffer in the presence or absence of heparin (250 to 2500 USP/ml). Rats were injected subcutaneously with 50 microlitres of this mixture and spreading allowed to occur over a period of 1 to 3 hours. The rats were sacrificed and the skin removed for observation of the area of spreading.

[5] = test system: leech hyaluronidase; test: Leech hyaluronidase activity with heparin, with and without hementin; assay type: biochemical; conditions: 60 min
Description: as §1
B) Leech hyaluronidase (75 IU/ml) was mixed with and without hementin (180 IU/ml) (where IU is defined as one microgram of fibrinogen incoagulated/min/37° C.) end incubated with heparin (1.5-1500 USP/ml) for one hour at 25° C. prior to addition to hyaluronic acid (2 mg/ml) and further incubation for one hour at 37° C. Reducing sugar levels were determined (see Example 1) and the results expressed as a percentage of controls containing no heparin. (Table 3).

[6] = Clotting time of patient plasma before and after heparinisation; assay type: in vivo, human; conditions: patient plasma after heparinisation with 30,000 USP/24 h; 40 seconds before
Description: B) Leech hyaluronidase (200 IU/ml) was preincubated for one hour at 25° C. with and without plasma and heparinised plasma in 20 mM MES, 0.1M NaCl, pH 5.0 buffer. Plasma was obtained from a patient before and after heparinisation with 30,000 USP/24 h resulting in an increase in the clotting time of 40 seconds to 80 seconds. Incubations were continued by addition to hyaluronic acid (see section A, above) and reducing sugars determined as above (Example 1).

[7] = test system: mammalian testicular hyaluronidase; conditions: Mathews & Dorfman, Physiological Review, 35; cited from earlier work
[8] = test system: leech hyaluronidase; test: Leech hyaluronidase activity in the presence of tPA with and without heparin; assay type: biochemical; conditions: tPA range of concentrations; presence or absence of heparin 200 USP/ml; FIG. 5
Description: as §1
A) Leech hyaluronidase (68 IU/ml) was mixed with and without heparin (200 USP/ml) and human tissue plasminogen activator (tPA) in a range of concentrations ([…]) and with hyaluronic acid (5 mg/ml) and incubated for 1 h at 37° C. Reducing sugars were determined (Example 1) and results expressed as a percentage of controls containing no tPA.

leech hyaluronidase activity, percentage of control incubations containing no heparin [1]: no significant effect
mammalian testicular hyaluronidase activity, percentage of controls without heparin [2]: completely inhibited
leech hyaluronidase activity, % Control (no heparin) ([5]; Heparin 1.5 USP/ml, With Hementin (180 IU/ml)): 103%
leech hyaluronidase activity, % Control (no heparin) ([5]; Heparin 1.5 USP/ml, Without Hementin): 97.5%
leech hyaluronidase activity, % Control (no heparin) ([5]; Heparin 15 USP/ml, With Hementin (180 IU/ml)): 93.8%
leech hyaluronidase activity, % Control (no heparin) ([5]; Heparin 15 USP/ml, Without Hementin): 100%
leech hyaluronidase activity, % Control (no heparin) ([5]; Heparin 150 USP/ml, With Hementin (180 IU/ml)): 100%
leech hyaluronidase activity, % Control (no heparin) ([5]; Heparin 150 USP/ml, Without Hementin): 103%
leech hyaluronidase activity, % Control (no heparin) ([5]; Heparin 1500 USP/ml, With Hementin (180 IU/ml)): 109%
leech hyaluronidase activity, % Control (no heparin) ([5]; Heparin 1500 USP/ml, Without Hementin): 103%
Substance: Heparin
Whole Blood Clotting Time ([3]; Heparin 1.0 USP/ml, Leech Enzyme (50IU/ml)): 14.5 min
Whole Blood Clotting Time ([3]; Heparin 1.0 USP/ml, without leech enzyme): 14.5 min
Whole Blood Clotting Time ([3]; Heparin 2.5 USP/ml, Leech Enzyme (50IU/ml)): 24.5 min
Whole Blood Clotting Time ([3]; Heparin 2.5 USP/ml, without leech enzyme): 24.0 min
Whole Blood Clotting Time ([3]; Heparin 5 USP/ml, Leech Enzyme (50IU/ml)): NC (no clot formation before 20 minutes at 37° C.)
Whole Blood Clotting Time ([3]; Heparin 5 USP/ml, without leech enzyme): NC (no clot formation before 20 minutes at 37° C.)
Whole Blood Clotting Time ([3]; Heparin 10 USP/ml, Leech Enzyme (50IU/ml)): NC (no clot formation before 20 minutes at 37° C.)
Whole Blood Clotting Time ([3]; Heparin 10 USP/ml, without leech enzyme): NC (no clot formation before 20 minutes at 37° C.)
Whole Blood Clotting Time ([3]; Heparin 20 USP/ml, Leech Enzyme (50IU/ml)): NC (no clot formation before 20 minutes at 37° C.)
Whole Blood Clotting Time ([3]; Heparin 20 USP/ml, without leech enzyme): NC (no clot formation before 20 minutes at 37° C.)
effect of heparin on enzyme-induced ink spreading [4]: not significantly affected
clotting time [6]: 80 s
inhibition of mammalian testicular hyaluronidase by heparin [7]: inhibited competitively

Substance: tPA: human tissue plasminogen activator, a clot-lytic agent
leech hyaluronidase activity, percentage of controls containing no tPA [8]: no effect

From patent US5279824A, “Pharmaceutical formulation containing heparin and endo-beta-glucuronidase, useful for the treatment of thrombosis” (Merck Patent GmbH, priority 1988, dated 1994)
